The record followed here is ChEMBL document CHEMBL5126517, “Structure-Activity Relationship in the Leucettine Family of Kinase Inhibitors” (J Med Chem, 2022).

Some results are limits rather than exact numbers.

Data set [1] has as its target Dual specificity protein kinase CLK4 (Mus musculus, UniProt O35493). As to the kind of experiment: Inhibition of GST-fused mouse recombinant CLK4 expressed in Escherichia coli using GRSRSRSRSRSR peptide as substrate incubated for 30 mins in presence of ATP by scintillation counting method.
Data set [2] has as its target Dual specificity protein kinase CLK3 (Mus musculus, UniProt O35492). Nature of the data set: Inhibition of GST-fused mouse recombinant CLK3 expressed in Escherichia coli using GRSRSRSRSRSR peptide as substrate incubated for 30 mins in presence of ATP by scintillation counting method.
Data set [3] has as its target Dual specificity protein kinase CLK1 (Mus musculus, UniProt P22518). As to the kind of experiment: Inhibition of GST-fused mouse recombinant CLK1 expressed in Escherichia coli using GRSRSRSRSRSR peptide as substrate incubated for 30 mins in presence of ATP by scintillation counting method.
Data set [4] concerns the target Dual specificity protein kinase CLK2 (Mus musculus, UniProt O35491). Nature of the data set: Inhibition of mouse recombinant GST-fused CLK2 expressed in Escherichia coli using GRSRSRSRSRSR peptide as substrate incubated for 30 mins in presence of ATP by scintillation counting method.
Data set [5] deals with Dual specificity tyrosine-phosphorylation-regulated kinase 1A (Homo sapiens, UniProt Q13627). As to the kind of experiment: Inhibition of GST-fused human recombinant DYRK1A expressed in Escherichia coli using GRSRSRSRSRSR peptide as substrate incubated for 30 mins in presence of ATP by scintillation counting method.
The target in data set [6] is T1, Dual specificity tyrosine-phosphorylation-regulated kinase 2 (Homo sapiens, UniProt Q92630).
T1 sequence (Q92630 whole entry): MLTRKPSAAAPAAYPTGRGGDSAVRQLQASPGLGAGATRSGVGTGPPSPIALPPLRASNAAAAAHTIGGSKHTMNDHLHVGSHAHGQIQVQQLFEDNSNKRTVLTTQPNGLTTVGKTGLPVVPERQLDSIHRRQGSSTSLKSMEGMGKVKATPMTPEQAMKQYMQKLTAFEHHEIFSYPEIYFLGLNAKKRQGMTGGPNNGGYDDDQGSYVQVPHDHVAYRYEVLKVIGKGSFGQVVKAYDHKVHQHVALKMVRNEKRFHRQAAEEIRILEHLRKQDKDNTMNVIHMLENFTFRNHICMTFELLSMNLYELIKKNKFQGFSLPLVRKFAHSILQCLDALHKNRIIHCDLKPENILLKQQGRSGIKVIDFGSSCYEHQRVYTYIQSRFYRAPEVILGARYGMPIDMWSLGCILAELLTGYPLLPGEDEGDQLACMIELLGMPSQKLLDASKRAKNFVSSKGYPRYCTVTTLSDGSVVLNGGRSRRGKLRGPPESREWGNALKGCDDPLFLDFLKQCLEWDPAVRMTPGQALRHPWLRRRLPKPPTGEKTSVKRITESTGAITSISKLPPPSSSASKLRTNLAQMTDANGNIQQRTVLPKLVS
Nature of the data set: Inhibition of GST-fused human recombinant DYRK2 expressed in Escherichia coli using GRSRSRSRSRSR peptide as substrate incubated for 30 mins in presence of ATP by scintillation counting method.

Data set [7] concerns the target T2, Dual specificity tyrosine-phosphorylation-regulated kinase 3 (Homo sapiens, UniProt O43781).
T2 sequence (O43781 whole entry): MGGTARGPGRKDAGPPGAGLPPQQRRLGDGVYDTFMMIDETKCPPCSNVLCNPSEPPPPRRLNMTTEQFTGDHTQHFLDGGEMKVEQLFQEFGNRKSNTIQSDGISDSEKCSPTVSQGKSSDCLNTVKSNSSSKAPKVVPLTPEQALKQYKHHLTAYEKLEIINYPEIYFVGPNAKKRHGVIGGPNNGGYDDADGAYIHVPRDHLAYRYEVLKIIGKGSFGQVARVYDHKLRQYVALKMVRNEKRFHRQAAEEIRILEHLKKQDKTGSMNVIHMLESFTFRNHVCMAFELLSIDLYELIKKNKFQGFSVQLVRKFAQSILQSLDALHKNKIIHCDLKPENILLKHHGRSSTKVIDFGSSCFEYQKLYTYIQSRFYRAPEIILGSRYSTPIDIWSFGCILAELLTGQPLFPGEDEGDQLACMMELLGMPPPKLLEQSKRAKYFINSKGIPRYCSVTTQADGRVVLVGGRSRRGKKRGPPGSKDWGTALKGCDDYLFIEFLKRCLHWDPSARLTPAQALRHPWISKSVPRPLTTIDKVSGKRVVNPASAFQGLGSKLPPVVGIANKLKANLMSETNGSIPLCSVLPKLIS
As to the kind of experiment: Inhibition of GST-fused human recombinant DYRK3 expressed in Escherichia coli using GRSRSRSRSRSR peptide as substrate incubated for 30 mins in presence of ATP by scintillation counting method.

The test system of the next data set is U2OS. As to the kind of experiment: Induction of PI3K/mTor-dependent autophagy in human U2OS cells assessed as number of LC3 foci per cell at 10 uM measured after 4 hrs. The data set is classed as cell-based. The following applies: filed as activator.
Data set [8] has as its system HT-22. Nature of the data set: Modulation of CLK1 pre-mRNA splicing in mouse HT-22 cells assessed as inclusion of CLK1 exon 4 by measuring change in threshold cycle at 10 uM measured after 4 hrs by real time PCR analysis. Format: cell-based. The conditions noted are these: filed as modulator. In general terms: In qPCR the cycle at which signal appears reflects the starting amount.

A further data set addresses Cannabinoid receptor 1 (Homo sapiens, UniProt P21554). As to the kind of experiment: Antagonist activity at CP-55940-activated CB1 receptor (unknown origin) at 10 uM by beta-arrestin assay relative to control. The data set is classed as functional. Further details: scale not given: the % may be the effect or the level left.
The nature of data set [9]: Neurotoxicity against mouse HT-22 cells assessed as cell survival at 20 uM treated for 24 hrs by MTS assay. The conditions noted are these: ht-22, 24 h. The data set is classed as toxicity, cell-based. For orientation: Formazan colour is commonly taken as a measure of viable cells.
Data set [10] concerns the target Glycogen synthase kinase-3 (Sus scrofa, UniProt B2LUN4+I6LNT8). Nature of the data set: Inhibition of porcine brain GSK-3alpha/beta using YRRAAVPPSPSLSRHSSPHQpSEDEEE as substrate incubated for 30 mins in presence of ATP by scintillation counting method. The data set is classed as tissue-based.
For data set [11], the target named is Dual specificity tyrosine-phosphorylation-regulated kinase 1B (Homo sapiens, UniProt Q9Y463).
The target of data set [12] is Serine/threonine-protein kinase pim-1 (Homo sapiens, UniProt P11309). As to the kind of experiment: Inhibition of human recombinant Pim1 expressed in Escherichia coli using histone H1 as substrate incubated for 30 mins in presence of ATP by scintillation counting method.
For another data set, the target named is Casein kinase 2 (Homo sapiens, UniProt P67870+P68400+P19784+Q8NEV1). Nature of the data set: Inhibition of human recombinant CK2 using RRRDDDSDDD peptide as substrate incubated for 30 mins in presence of ATP by scintillation counting method. Format: protein assay.
Data set [13] deals with HT-22. As to the kind of experiment: Neuroprotective activity against glutamate-induced cell death in mouse HT-22 cells treated for 24 hrs by MTS assay. Format: functional, cell-based. The following applies: HT-22, 24 h.

What is called IC50 is the midpoint of a concentration-inhibition curve. By EC50 is commonly meant the concentration giving half of the maximal effect.

Chain of Dual specificity protein kinase CLK2 (O35491 whole entry, the tested form may be a part): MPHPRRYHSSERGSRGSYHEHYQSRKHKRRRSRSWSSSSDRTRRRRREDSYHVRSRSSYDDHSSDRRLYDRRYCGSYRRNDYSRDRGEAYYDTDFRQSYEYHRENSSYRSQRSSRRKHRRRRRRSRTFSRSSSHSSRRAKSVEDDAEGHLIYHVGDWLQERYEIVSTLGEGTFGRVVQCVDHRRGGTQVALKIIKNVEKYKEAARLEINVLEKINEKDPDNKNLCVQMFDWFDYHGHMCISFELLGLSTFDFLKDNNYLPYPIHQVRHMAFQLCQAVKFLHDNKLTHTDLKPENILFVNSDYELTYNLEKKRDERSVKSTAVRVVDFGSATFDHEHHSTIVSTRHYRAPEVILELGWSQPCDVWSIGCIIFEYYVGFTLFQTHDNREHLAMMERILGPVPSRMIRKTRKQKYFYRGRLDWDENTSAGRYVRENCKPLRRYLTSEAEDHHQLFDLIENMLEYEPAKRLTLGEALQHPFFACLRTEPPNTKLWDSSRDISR
Chain of Cannabinoid receptor 1 (P21554 whole entry): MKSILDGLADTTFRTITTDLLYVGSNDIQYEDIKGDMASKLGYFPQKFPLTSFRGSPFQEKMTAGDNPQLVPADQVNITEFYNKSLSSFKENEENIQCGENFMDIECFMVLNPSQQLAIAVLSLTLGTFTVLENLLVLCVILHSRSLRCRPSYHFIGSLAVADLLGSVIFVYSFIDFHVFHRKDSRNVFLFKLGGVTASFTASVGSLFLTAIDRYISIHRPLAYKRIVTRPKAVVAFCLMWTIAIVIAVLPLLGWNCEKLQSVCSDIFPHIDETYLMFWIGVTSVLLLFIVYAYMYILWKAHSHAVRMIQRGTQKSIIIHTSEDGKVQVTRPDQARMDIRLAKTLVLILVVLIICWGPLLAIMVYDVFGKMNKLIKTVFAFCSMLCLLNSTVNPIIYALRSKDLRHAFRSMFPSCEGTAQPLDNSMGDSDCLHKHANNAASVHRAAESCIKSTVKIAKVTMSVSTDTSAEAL
Chain of Serine/threonine-protein kinase pim-1 (P11309 whole entry): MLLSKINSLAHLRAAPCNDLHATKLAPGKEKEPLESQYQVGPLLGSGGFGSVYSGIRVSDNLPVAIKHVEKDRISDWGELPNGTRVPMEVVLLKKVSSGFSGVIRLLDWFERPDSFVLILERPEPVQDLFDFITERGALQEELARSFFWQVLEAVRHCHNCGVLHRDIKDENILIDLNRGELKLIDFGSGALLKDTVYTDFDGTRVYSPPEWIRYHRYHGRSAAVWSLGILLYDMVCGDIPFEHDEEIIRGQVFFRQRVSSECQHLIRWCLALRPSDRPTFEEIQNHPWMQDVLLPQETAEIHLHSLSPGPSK
Chain of Dual specificity tyrosine-phosphorylation-regulated kinase 1B (Q9Y463 whole entry): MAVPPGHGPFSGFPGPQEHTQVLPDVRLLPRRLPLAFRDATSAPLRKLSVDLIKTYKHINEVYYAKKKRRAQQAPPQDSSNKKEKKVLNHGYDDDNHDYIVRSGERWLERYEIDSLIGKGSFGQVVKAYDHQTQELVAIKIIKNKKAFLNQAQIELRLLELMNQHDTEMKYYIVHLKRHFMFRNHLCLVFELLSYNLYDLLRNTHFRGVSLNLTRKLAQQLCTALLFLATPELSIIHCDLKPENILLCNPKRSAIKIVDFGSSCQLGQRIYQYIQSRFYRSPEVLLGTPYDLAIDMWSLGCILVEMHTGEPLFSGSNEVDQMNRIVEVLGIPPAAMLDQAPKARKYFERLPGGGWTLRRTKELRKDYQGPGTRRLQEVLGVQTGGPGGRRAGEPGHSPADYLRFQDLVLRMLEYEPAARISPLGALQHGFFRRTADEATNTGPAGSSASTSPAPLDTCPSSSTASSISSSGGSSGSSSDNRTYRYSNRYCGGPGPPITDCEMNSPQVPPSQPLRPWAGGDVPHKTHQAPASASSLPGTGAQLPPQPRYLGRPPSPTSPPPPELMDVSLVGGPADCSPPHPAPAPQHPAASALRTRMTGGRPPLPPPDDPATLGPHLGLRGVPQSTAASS
Chain of Dual specificity protein kinase CLK4 (O35493 whole entry, the tested form may be a part): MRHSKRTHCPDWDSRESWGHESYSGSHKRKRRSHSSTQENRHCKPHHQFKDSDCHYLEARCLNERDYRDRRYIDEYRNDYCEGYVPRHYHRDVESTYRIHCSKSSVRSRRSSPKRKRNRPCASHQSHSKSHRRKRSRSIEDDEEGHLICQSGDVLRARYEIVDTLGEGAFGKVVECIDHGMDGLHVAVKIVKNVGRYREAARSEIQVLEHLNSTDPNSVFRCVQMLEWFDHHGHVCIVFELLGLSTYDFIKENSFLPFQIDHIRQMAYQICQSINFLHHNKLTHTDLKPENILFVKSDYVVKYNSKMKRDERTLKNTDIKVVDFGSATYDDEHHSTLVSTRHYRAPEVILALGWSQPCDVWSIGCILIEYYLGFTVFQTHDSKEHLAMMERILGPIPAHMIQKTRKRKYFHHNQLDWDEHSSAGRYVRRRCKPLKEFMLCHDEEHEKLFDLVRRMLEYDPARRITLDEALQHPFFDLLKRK
Chain of Dual specificity protein kinase CLK1 (P22518 whole entry, the tested form may be a part): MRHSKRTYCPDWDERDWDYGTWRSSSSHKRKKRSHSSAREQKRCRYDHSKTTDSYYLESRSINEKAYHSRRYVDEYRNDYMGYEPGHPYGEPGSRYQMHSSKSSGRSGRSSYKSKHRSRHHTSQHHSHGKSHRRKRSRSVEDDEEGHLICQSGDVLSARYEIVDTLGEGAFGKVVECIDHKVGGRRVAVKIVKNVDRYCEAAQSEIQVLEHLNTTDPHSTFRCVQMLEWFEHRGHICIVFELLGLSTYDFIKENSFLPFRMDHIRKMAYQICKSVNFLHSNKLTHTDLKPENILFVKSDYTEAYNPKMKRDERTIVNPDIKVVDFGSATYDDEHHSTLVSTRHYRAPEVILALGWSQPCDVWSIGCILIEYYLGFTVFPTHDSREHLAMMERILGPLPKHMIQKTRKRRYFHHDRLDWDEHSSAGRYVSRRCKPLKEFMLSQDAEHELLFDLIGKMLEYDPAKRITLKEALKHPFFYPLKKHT
Chain of Dual specificity protein kinase CLK3 (O35492 whole entry, the tested form may be a part): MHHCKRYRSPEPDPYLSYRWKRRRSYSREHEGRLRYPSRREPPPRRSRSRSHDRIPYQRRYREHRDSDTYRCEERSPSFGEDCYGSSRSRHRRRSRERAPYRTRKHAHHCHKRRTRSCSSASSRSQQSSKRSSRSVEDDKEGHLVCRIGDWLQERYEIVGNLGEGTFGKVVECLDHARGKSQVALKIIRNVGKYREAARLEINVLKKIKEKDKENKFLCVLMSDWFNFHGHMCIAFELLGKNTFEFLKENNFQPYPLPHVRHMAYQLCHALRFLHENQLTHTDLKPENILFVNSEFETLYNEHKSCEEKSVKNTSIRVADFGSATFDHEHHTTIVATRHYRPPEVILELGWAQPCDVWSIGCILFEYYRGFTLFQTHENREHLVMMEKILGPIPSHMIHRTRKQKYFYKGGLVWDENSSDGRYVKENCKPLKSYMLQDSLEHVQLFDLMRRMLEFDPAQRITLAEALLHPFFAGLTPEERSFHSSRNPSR

As to `Cn1cc(Cc2ccc3c(c2)OCO3)nc1N`, the IC50 is 3000 nM in [1]; > 10 µM in data set [2]; 3200 nM in data set [3]; > 10000 nM in [4]; > 10000 nM in data set [5]; > 10000 nM in data set [6]. In data set [7], the IC50 is > 10000 nM. Moreover, the results for the Activity (in the data set on U2OS; at Cannabinoid receptor 1; in [9]) were 5.3, 8.9% and “Non-Toxic”, respectively. Further, the deltaCT in the data set with HT-22 [8] turned out to be 0.38.
In the case of `O=C1NC(NC2CCNCC2)=N/C1=C\c1ccc2c(c1)OCO2`, the IC50 in data set [10] was 1.3 µM; in data set [1] it was 260 nM; in [2], 5.3 µM; in data set [3], 220 nM; in [4], 900 nM; in [5] it was 340 nM. Besides, the IC50 in data set [11] was 650 nM; in data set [6], 250 nM; in [7] it was 910 nM; in data set [12], 6400 nM; on Casein kinase 2, > 10 µM. In addition, the figures for the Activity (in the data set with U2OS; on Cannabinoid receptor 1; in [9]) were 7.4, -43.5% and “Non-Toxic”, respectively. The deltaCT in the data set with HT-22 [8] stood at 0.36.
Regarding `CCSC1NC(=O)/C(=C/c2ccc3c(c2)OCO3)N1C` (stereo not drawn), the Activity in the data set on U2OS was 6.5; on Cannabinoid receptor 1, -10.7%; in data set [9], “Non-Toxic”. Moreover, in the data set on HT-22 [8], the deltaCT was 0.23.
As for `O=C1NC(N2CCC(N3CCCCC3)CC2)=N/C1=C\c1ccc2c(c1)OCO2`, the IC50 in [10] is 6.2 µM; in data set [1], 1400 nM; in [2], > 10 µM; in data set [3] it was 920 nM; in [4], 3200 nM; in data set [5] it was 1100 nM. Besides, the IC50 in data set [11] is 4400 nM; in data set [6] it was 1400 nM; in data set [7] it was 5200 nM; in [12], 7600 nM; at Casein kinase 2 it was > 10 µM. For the same molecule, the Activity in the data set on U2OS is 7.1; at Cannabinoid receptor 1, -51.1%; in data set [9], “Non-Toxic”. The deltaCT in the data set on HT-22 [8] is 0.42.
On to `CSC1=N/C(=C\c2ccc3c(c2)OCO3)C(=O)N1`, for which the IC50 worked out at 1.8 µM in data set [10]; 80 nM in data set [1]; 2.4 µM in [2]; 73 nM in data set [3]; 250 nM in [4]; 110 nM in data set [5]. Moreover, the IC50 in [11] was 330 nM; in [6] it was 80 nM; in data set [7] it was 410 nM; in data set [12] it was 1200 nM; on Casein kinase 2 it was 2.2 µM. Further, the Activity was 5.9 with U2OS, -23% at Cannabinoid receptor 1 and “Non-Toxic” in data set [9]. In the data set with HT-22 [8], the deltaCT was determined as 0.13.
Turning to `O=C1NC(N2CCOCC2)=N/C1=C\c1ccc2c(c1)OCO2`, the IC50 in data set [10] was 6.5 µM; in [1], 290 nM; in data set [2], 5.6 µM; in data set [3], 430 nM; in [4], 1500 nM; in data set [5], 440 nM. Besides, the IC50 in data set [11] came to 1700 nM; in [6], 410 nM; in data set [7] it was 1900 nM; in data set [12], 2400 nM; on Casein kinase 2, 1.1 µM. Also, the Activity in the data set with U2OS was 6.5; at Cannabinoid receptor 1 it was -51%; in data set [9], “Non-Toxic”. Besides, the deltaCT in the data set with HT-22 [8] is 0.63.
On to `O=C1NC(N2CCCCC2)=N/C1=C\c1ccc2c(c1)OCO2`, for which the IC50 in data set [10] is 2.6 µM; in [1], 250 nM; in data set [2] it was 4.5 µM; in data set [3] it was 240 nM; in data set [4], 1300 nM; in data set [5] it was 130 nM. Moreover, the IC50 in data set [11] was 440 nM; in data set [6], 220 nM; in data set [7], 530 nM; in data set [12] it was 880 nM; on Casein kinase 2, 0.76 µM. The results for the Activity (with U2OS; on Cannabinoid receptor 1; in [9]) were 6.8, -58.4% and “Non-Toxic”, respectively. Also, the deltaCT with HT-22 [8] was determined as 0.68.
On to `O=C1NC(N2CCCC2)=N/C1=C\c1ccc2c(c1)OCO2`, for which the IC50 worked out at 6.2 µM in data set [10]; 380 nM in [1]; 3.2 µM in [2]; 600 nM in data set [3]; 2300 nM in [4]; 630 nM in data set [5]. Besides, the IC50 in [11] amounted to 2300 nM; in data set [6], 930 nM; in data set [7] it was 930 nM; in data set [12] it was 1500 nM; at Casein kinase 2, 1.2 µM. In addition, the figures for the Activity (in the data set on U2OS; at Cannabinoid receptor 1; in data set [9]) were 5, -59.1% and “Non-Toxic”, respectively. The deltaCT with HT-22 [8] is 0.05.
`O=C1OC(Nc2ccccc2)=N/C1=C\c1ccc2c(c1)OCO2`: the results for the Activity (with U2OS; on Cannabinoid receptor 1; in data set [9]) were 6.2, -37.5% and “Non-Toxic”, respectively. Also, in the data set on HT-22 [8], the deltaCT was -0.18.
For the molecule `COc1ccc(NC2=N/C(=C\c3ccc4c(c3)OCO4)C(=O)N2)cc1`, the IC50 in data set [10] was > 10 µM; in data set [1], 130 nM; in [2] it was > 10 µM; in data set [3], 140 nM; in data set [4] it was 7500 nM; in data set [5] it was 110 nM. The IC50 in data set [11] is 270 nM; in [6] it was 130 nM; in data set [7], 6000 nM; on Casein kinase 2, > 10 µM. The Activity is 5.9 in the data set with U2OS, 50.5% at Cannabinoid receptor 1 (filed as antagonist) and “Non-Toxic” in [9]. For the same molecule, the deltaCT in the data set on HT-22 [8] was determined as 0.5.
Take `O=C1NC(Nc2cccc(F)c2)=N/C1=C\c1ccc2c(c1)OCO2`: the IC50 was found to be 0.56 µM in data set [10]; 30 nM in data set [1]; 0.56 µM in data set [2]; 52 nM in data set [3]; 130 nM in data set [4]; 19 nM in data set [5]. The IC50 in data set [11] is 35 nM; in data set [6], 23 nM; in [7] it was 350 nM; in data set [12], 1200 nM; on Casein kinase 2, 0.8 µM. The molecule further showed an EC50 in the data set with HT-22 [13] of 5 µM. Moreover, the Activity in the data set with U2OS was 7.5; on Cannabinoid receptor 1 (filed as antagonist), 83.4%; in data set [9], “Non-Toxic”.
